Tested on: KRAS-mutant PDC tumor spheroid with HUVEC/MSC, viability
Experiment: Anticancer human tumor 327498-153-R-J2-PDC patient-derived uterine carcinosarcoma cell line growth inhibition [KRAS2]
Details: for IC50: curve of first compound; for viability, T/C: stronger effect = lower value
Method in brief: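 KRAS-mutant tumor cells were grown as spheroids with HUVEC endothelial cells and human MSCs as stroma. Targeted agents were tested alone and with KRAS pathway inhibitors. Doses started at or near clinical Cmax, or 10 microM, descending half-log.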

[1] = second compound 0.1 µM, first compound 0.000316 µM
[2] = second compound 0.1 µM, first compound 0.001 µM
[3] = second compound 0.1 µM, first compound 0.00316 µM
[4] = second compound 0.1 µM, first compound 0.01 µM
[5] = second compound 0.1 µM, first compound 0.0316 µM
[6] = second compound 0.316 µM, first compound 0.000316 µM
[7] = second compound 0.316 µM, first compound 0.001 µM
[8] = second compound 0.316 µM, first compound 0.00316 µM
[9] = second compound 0.316 µM, first compound 0.01 µM
[10] = second compound 0.316 µM, first compound 0.0316 µM
[11] = second compound 1 µM, first compound 0.000316 µM
[12] = second compound 1 µM, first compound 0.001 µM
[13] = second compound 1 µM, first compound 0.00316 µM
[14] = second compound 1 µM, first compound 0.01 µM
[15] = second compound 1 µM, first compound 0.0316 µM
[16] = second compound 3.16 µM, first compound 0.000316 µM
[17] = second compound 3.16 µM, first compound 0.001 µM
[18] = second compound 3.16 µM, first compound 0.00316 µM
[19] = second compound 3.16 µM, first compound 0.01 µM
[20] = second compound 3.16 µM, first compound 0.0316 µM
[21] = second compound 10 µM, first compound 0.000316 µM
[22] = second compound 10 µM, first compound 0.001 µM
[23] = second compound 10 µM, first compound 0.00316 µM
[24] = second compound 10 µM, first compound 0.01 µM
[25] = second compound 10 µM, first compound 0.0316 µM
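Also: spheroids exposed to agents for seven days before reading.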
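For viability, T/C in this document: 100% = DMSO vehicle wells so lower means fewer viable cells.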

CC(=O)Nc1cccc(-n2c(=O)n(C3CC3)c(=O)c3c(Nc4ccc(I)cc4F)n(C)c(=O)c(C)c32)c1 + COc1cc2nc(C)nc(NC(C)c3cc(N)cc(C(F)(F)F)c3)c2cc1OC1CCOC1
IC50 (second compound 0.1 µM): 3.71 nM
IC50 (second compound 0.316 µM): 2.62 nM
IC50 (second compound 1 µM): 2.12 nM
IC50 (second compound 3.16 µM): 1.05 nM
IC50 (second compound 10 µM): < 0.1 nM
viability, T/C (second compound 0.1 µM, first compound 0.0001 µM): 67.4%
viability, T/C [1]: 68.6%
viability, T/C [2]: 55.7%
viability, T/C [3]: 48.5%
viability, T/C [4]: 46.1%
viability, T/C [5]: 25.5%
viability, T/C (second compound 0.316 µM, first compound 0.0001 µM): 74.9%
viability, T/C [6]: 63.1%
viability, T/C [7]: 54.5%
viability, T/C [8]: 50.9%
viability, T/C [9]: 43.2%
viability, T/C [10]: 26.8%
viability, T/C (second compound 1 µM, first compound 0.0001 µM): 64.6%
viability, T/C [11]: 67.3%
viability, T/C [12]: 52.3%
viability, T/C [13]: 44.3%
viability, T/C [14]: 40.8%
viability, T/C [15]: 22.9%
viability, T/C (second compound 3.16 µM, first compound 0.0001 µM): 56.5%
viability, T/C [16]: 52.6%
viability, T/C [17]: 47.9%
viability, T/C [18]: 44.1%
viability, T/C [19]: 40%
viability, T/C [20]: 22.4%
viability, T/C (second compound 10 µM, first compound 0.0001 µM): 48.1%
viability, T/C [21]: 37.7%
viability, T/C [22]: 38.4%
viability, T/C [23]: 29.8%
viability, T/C [24]: 31.1%
viability, T/C [25]: 18.3%

CC(C)n1nc(-c2ccc3oc(N)nc3c2)c2c(N)ncnc21 + COc1cc2nc(C)nc(NC(C)c3cc(N)cc(C(F)(F)F)c3)c2cc1OC1CCOC1
IC50 (second compound 0.1 µM): 4.34 nM
IC50 (second compound 0.316 µM): 2.29 nM
IC50 (second compound 1 µM): 1.98 nM
IC50 (second compound 3.16 µM): 0.824 nM
IC50 (second compound 10 µM): < 0.316 nM
viability, T/C [1]: 77.5%
viability, T/C [2]: 71.7%
viability, T/C [3]: 59.1%
viability, T/C [4]: 27.3%
viability, T/C [5]: 10.2%
viability, T/C (second compound 0.1 µM, first compound 0.1 µM): 6.27%
viability, T/C [6]: 71.5%
viability, T/C [7]: 60.4%
viability, T/C [8]: 46.5%
viability, T/C [9]: 23.3%
viability, T/C [10]: 8.8%
viability, T/C (second compound 0.316 µM, first compound 0.1 µM): 6.67%
viability, T/C [11]: 60.2%
viability, T/C [12]: 63.7%
viability, T/C [13]: 40.1%
viability, T/C [14]: 26.3%
viability, T/C [15]: 8.62%
viability, T/C (second compound 1 µM, first compound 0.1 µM): 6.87%
viability, T/C [16]: 52.6%
viability, T/C [17]: 50.1%
viability, T/C [18]: 36.1%
viability, T/C [19]: 17.1%
viability, T/C [20]: 7.65%
viability, T/C (second compound 3.16 µM, first compound 0.1 µM): 4.15%
viability, T/C [21]: 38.8%
viability, T/C [22]: 35.5%
viability, T/C [23]: 23.4%
viability, T/C [24]: 17.4%
viability, T/C [25]: 3.51%
viability, T/C (second compound 10 µM, first compound 0.1 µM): 1.94%
